From ChEMBL document CHEMBL1133214, “Novel nikkomycin analogues: inhibitors of the fungal cell wall biosynthesis enzyme chitin synthase” (Bioorg Med Chem Lett, 2000)
Values after ≈ are worked out from the molar mass of the structure shown.

What was measured:
[1] = test system: Candida albicans; assay: Percent inhibition rate of 100 ug/mL against chitin synthase isolated from Candida albicans.
[2] = Inhibition of chitin synthase isolated from Candida Albicans.

SMILES	Rate [1]	IC50 [2]
N[C@@H](CSCC1CCCCC1)C(=O)N[C@H](C(=O)O)[C@H]1O[C@@H](n2ccc(=O)[nH]c2=O)[C@H](O)C1O (single isomer, unassigned)	67%	
CCCCCCCCCCCCSC[C@H](N)C(=O)N[C@H](C(=O)O)[C@H]1O[C@@H](n2ccc(=O)[nH]c2=O)[C@H](O)C1O (single isomer, unassigned)	64%	
CC(C)(SCc1ccccc1O)[C@H](N)C(=O)N[C@H](C(=O)O)[C@H]1O[C@@H](n2ccc(=O)[nH]c2=O)[C@H](O)C1O (single isomer, unassigned)	88%	13.8 µg/mL (≈ 26.3 µM)
CC(=O)NCSC[C@H](N)C(=O)N[C@H](C(=O)O)[C@H]1O[C@@H](n2ccc(=O)[nH]c2=O)[C@H](O)C1O (single isomer, unassigned)	65%	
N[C@@H](CSc1ccc2ccccc2c1)C(=O)N[C@H](C(=O)O)[C@H]1O[C@@H](n2ccc(=O)[nH]c2=O)[C@H](O)C1O (single isomer, unassigned)	40%	
CC(C)(SCc1ccc2ccccc2c1)[C@H](N)C(=O)N[C@H](C(=O)O)[C@H]1O[C@@H](n2ccc(=O)[nH]c2=O)[C@H](O)C1O (single isomer, unassigned)	94%	1.42 µg/mL (≈ 2.54 µM)
CC(C)=CCC/C(C)=C/CSC[C@H](N)C(=O)N[C@H](C(=O)O)[C@H]1O[C@@H](n2ccc(=O)[nH]c2=O)[C@H](O)C1O (single isomer, unassigned)	22%	
C[C@@H]([C@H](N)C(=O)N[C@H](C(=O)O)[C@H]1O[C@@H](n2ccc(=O)[nH]c2=O)[C@H](O)C1O)[C@H](O)c1ccc(O)cn1 (single isomer, unassigned) [NIKKOMYCIN]		0.393 µg/mL (≈ 0.793 µM)
N[C@@H](CSc1ccc(C(=O)O)cn1)C(=O)N[C@H](C(=O)O)[C@H]1O[C@@H](n2ccc(=O)[nH]c2=O)[C@H](O)C1O (single isomer, unassigned)	64%	52.5 µg/mL (≈ 103 µM)
N[C@@H](Cc1cc2ccccc2c2ccccc12)C(=O)N[C@H](C(=O)O)[C@H]1O[C@@H](n2ccc(=O)[nH]c2=O)[C@H](O)C1O (single isomer, unassigned)	99%	0.31 µg/mL (≈ 0.58 µM)
CC(C)(SCc1ccccc1)[C@H](N)C(=O)N[C@H](C(=O)O)[C@H]1O[C@@H](n2ccc(=O)[nH]c2=O)[C@H](O)C1O (single isomer, unassigned)	97%	9.83 µg/mL (≈ 19.3 µM)

Now from value to compound:

Rate [1]	IC50 [2]	SMILES
99%	4.83 µg/mL (≈ 10.7 µM)	N[C@@H](Cc1ccc(O)cc1)C(=O)N[C@H](C(=O)O)[C@H]1O[C@@H](n2ccc(=O)[nH]c2=O)[C@H](O)C1O (single isomer, unassigned)
44%		N[C@@H](CSc1ccc(O)cc1)C(=O)N[C@H](C(=O)O)[C@H]1O[C@@H](n2ccc(=O)[nH]c2=O)[C@H](O)C1O (single isomer, unassigned)
42%		Nc1ccc(SC[C@H](N)C(=O)N[C@H](C(=O)O)[C@H]2O[C@@H](n3ccc(=O)[nH]c3=O)[C@H](O)C2O)nc1 (single isomer, unassigned)
100%	4.91 µg/mL (≈ 9.36 µM)	CC(C)(SCc1cccc(O)c1)[C@H](N)C(=O)N[C@H](C(=O)O)[C@H]1O[C@@H](n2ccc(=O)[nH]c2=O)[C@H](O)C1O (single isomer, unassigned)
58%		CC(C)(SCc1ccc(O)cn1)[C@H](N)C(=O)N[C@H](C(=O)O)[C@H]1O[C@@H](n2ccc(=O)[nH]c2=O)[C@H](O)C1O (single isomer, unassigned)
96%	6.43 µg/mL (≈ 13.3 µM)	N[C@@H](Cc1ccc2ccccc2c1)C(=O)N[C@H](C(=O)O)[C@H]1O[C@@H](n2ccc(=O)[nH]c2=O)[C@H](O)C1O (single isomer, unassigned)
73%	36 µg/mL (≈ 74.5 µM)	N[C@@H](CSc1ccc(O)cn1)C(=O)N[C@H](C(=O)O)[C@H]1O[C@@H](n2ccc(=O)[nH]c2=O)[C@H](O)C1O (single isomer, unassigned)
78%		N[C@@H](CSCc1ccccc1)C(=O)N[C@H](C(=O)O)[C@H]1O[C@@H](n2ccc(=O)[nH]c2=O)[C@H](O)C1O (single isomer, unassigned)
99%	4.69 µg/mL (≈ 9.68 µM)	N[C@@H](Cc1cccc2ccccc12)C(=O)N[C@H](C(=O)O)[C@H]1O[C@@H](n2ccc(=O)[nH]c2=O)[C@H](O)C1O (single isomer, unassigned)
48%		N[C@@H](CSc1ccccn1)C(=O)N[C@H](C(=O)O)[C@H]1O[C@@H](n2ccc(=O)[nH]c2=O)[C@H](O)C1O (single isomer, unassigned)
82%	19.8 µg/mL (≈ 45.5 µM)	N[C@@H](Cc1cccnc1)C(=O)N[C@H](C(=O)O)[C@H]1O[C@@H](n2ccc(=O)[nH]c2=O)[C@H](O)C1O (single isomer, unassigned)
34%		N[C@@H](Cc1ccc(O)cn1)C(=O)N[C@H](C(=O)O)[C@H]1O[C@@H](n2ccc(=O)[nH]c2=O)[C@H](O)C1O (single isomer, unassigned)
99%	5.89 µg/mL (≈ 11.2 µM)	CC(C)(SCc1ccc(O)cc1)[C@H](N)C(=O)N[C@H](C(=O)O)[C@H]1O[C@@H](n2ccc(=O)[nH]c2=O)[C@H](O)C1O (single isomer, unassigned)
